{"source": "patent US10220112B2", "about": "“Cyclic antimicrobial pseudopeptides and uses thereof” (INSERM (INSTITUT NATIONAL DE LA SANTE ET DE LA RECHERCHE …, priority 2014, dated 2019)", "key": {"[1]": {"system": "Staphylococcus aureus strain Newman", "procedure": "(§1) The antibacterial activity of the synthesized peptides was measured using a standard microdilution assay. Two bacterial species were tested, Staphylococcus aureus strain Newman and Escherichia coli strain K12 XL-Blue. Bacterial strains were subcultured in Mueller-Hinton broth. […] Bacteria were grown to an optical density (600 nm) of 0.5 and diluted 10^3 times in MH broth. Cell density in wells was 10^5 cfu/mL. 100 μL of this suspension was mixed with 100 μL of 2-fold serial dilutions of peptides in the well of a microtitre plate. Purified peptides were first dissolved in appropriate solvent to a final concentration of 2 mg/mL, in the microtitre plate, dilutions were made in MH broth from 1 to 0.004 mg/mL. […] Results obtained in massic concentrations were converted to molar concentrations for proper comparisons. Tests were performed in triplicate.\n(§2) The results presented in Table 2 below were obtained in triplicate as described in the case of Table 1 except that the starting concentration was […] instead of 1 mg/mL."}, "[2]": {"system": "Escherichia coli strain K12 XL-Blue", "procedure": "as §1, §2"}, "human erythrocytes": {"system": "human erythrocytes", "assay": "Lytic activity against human erythrocytes", "format": "cell-based", "conditions": "for Human cells % hemolysis at 500 μM / Human cells H50: Table 2; for Human cells H50: maximal concentration 500 μM", "procedure": "Human blood was collected from EFS (‘Etablissement Francais du Sang’) in Rennes (France). […] After centrifugation, the absorbance of the supernatant was measured at 414 nm. Three wells were positive controls, where the RBC were mixed with water 1% Triton X-100, in these wells the totality of RBC were hemolyzed and the release of hemoglobin was considered to be 100%. Three wells were negative controls, where the RBC were mixed with PBS buffer, in these wells hemolysis was considered to be null. The percentage of hemolysis in each test well was calculated by comparing with controls. For each peptide, bloods from three different donors were tested."}, "[3]": {"assay": "Peptides stability in human sera (RP-HPLC)", "procedure": "Peptides stability in human sera. […] The initial time was recorded, and at known time intervals, 100 μL of reaction solution was removed and quenched by adding 200 μL of 95% EtOH and adjusted at pH=2 to eliminate the effect of peptides adsorption to the protein of the human serum. The cloudy reaction sample was cooled (4° C.) for 15 minutes and then spun at 14 000 rpm (Eppendorf centrifuge) for 4 minutes to pellet the precipitated serum proteins.\nThe different peptides were incubated with human serum up to 10 hours, and their stability was analyzed and their half-lives determined by RP-HPLC (FIG. 1)."}, "[4]": {"system": "VISA strain S. aureus Mu 50", "assay": "microbe, parasite or virus in culture", "conditions": "Staphylococcus aureus, read-out: VISA MIC"}, "[5]": {"system": "MRSA strain S. aureus N315", "assay": "microbe, parasite or virus in culture", "conditions": "Staphylococcus aureus, read-out: MRSA MIC"}, "E. coli strain ML-35p": {"system": "E. coli strain ML-35p", "assay": "E. coli outer and inner membrane permeabilization assays (nitrocefin / ONPG)", "format": "cell-based, Escherichia coli", "procedure": "E. coli outer and inner membrane permeability was determined by using E. coli strain ML-35p, which is lactose permease deficient. Nitrocefin, β-lactam is excluded by the outer cell membrane but, if it can pass this barrier thanks to the action of an AMP, it is then cleaved by the β-lactamase localized within the periplasm. ONPG, passes through lac permease and is cleaved by the cytoplasmic β-galactosidase, however with the ML-35p E. coli strain, ONPG is excluded unless permeabilization is achieved. The permeabilization assays were carried out with 100 μL of bacteria in MH broth at A600 nm 0.1-0.2 (10^7 cfu/mL, density necessary to detect degradation products). […] ONPG was added to a 100 μg/ml final concentration and substrate cleavage was monitored by light absorption measurements at 420 nm. Polymixin B at 8 μM against 10^7 cfu/mL was used as positive control. Bacterial suspension in MH broth plus substrates was used as negative control (untreated cells)."}}, "note": "Residues, ends and D or L forms follow the SMILES beside them.", "data": [{"molecule": "CC(C)C[C@@H]1NC(=O)[C@H](Cc2c[nH]c3ccccc23)NC(=O)[C@H](Cc2ccccc2)NC(=O)[C@H](Cc2ccccc2)NC(=O)[C@H](CCCCN)NC(=O)[C@H]([C@@H](C)O)NC(=O)[C@H](CCCNC(=N)N)NC(=O)[C@H](CCCNC(=N)N)NC(=O)[C@H](CO)NC1=O", "note": "[Pep6] (cyclo(FFWLSRRTK))", "values": [{"measurement": "MIC, fold reduced compared to Pep5, S. aureus", "setting": "[1]", "result": "ten-fold"}, {"measurement": "fold higher activity than linear Pep4", "setting": "[1]; species not specified", "result": 4, "unit": "fold"}, {"measurement": "MIC, fold reduced compared to Pep5, E. coli", "setting": "[2]", "result": "ten-fold"}, {"measurement": "lysis of human erythrocytes (in words)", "setting": "human erythrocytes", "result": "substantial hemolysis"}, {"measurement": "Human cells H50 (peptide concentration at which half of the human erythrocytes are lysed)", "setting": "human erythrocytes; Table 1, 2 h 37°C, maximal concentration 1 mg/mL", "result": 5, "unit": "µM"}, {"measurement": "stabilizing effect in human serum compared with linear Pep4", "setting": "[3]", "result": "~320", "unit": "fold"}]}, {"molecule": "CN[C@H](CC(C)C)C(=O)N[C@H]1C(=O)N[C@@H](CC(N)=O)C(=O)N[C@H]2C(=O)N[C@H]3C(=O)N[C@H](C(=O)N[C@H](C(=O)O)c4cc(O)cc(O)c4-c4cc3ccc4O)[C@H](O)c3ccc(c(Cl)c3)Oc3cc2cc(c3O[C@@H]2O[C@H](CO)[C@@H](O)[C@H](O)[C@H]2O[C@H]2C[C@](C)(N)[C@H](O)[C@H](C)O2)Oc2ccc(cc2Cl)[C@H]1O", "note": "[Vancomycin, reference compound]", "values": [{"measurement": "Human cells % hemolysis at 500 μM", "setting": "human erythrocytes", "result": 0.15, "unit": "%"}, {"measurement": "Human cells H50", "setting": "human erythrocytes", "result": "nd (not detectable at the maximal concentration tested (500 μM))"}, {"measurement": "MIC", "setting": "[4]", "result": 1, "unit": "µM"}, {"measurement": "MIC", "setting": "[5]", "result": 32, "unit": "µM"}]}, {"molecule": "polymixin B", "values": [{"measurement": "time to detection of the reporter, inner membrane", "setting": "E. coli strain ML-35p; ONPG, polymixin B 8 μM, peptides 6 μM and 12 μM", "result": 20, "unit": "min"}, {"measurement": "time to detection of the reporter, outer membrane", "setting": "E. coli strain ML-35p; nitrocefin, polymixin B at 8 μM", "result": 30, "unit": "s"}]}, {"molecule": "COc1cccc(OC)c1C(=O)N[C@@H]1C(=O)N2[C@@H]1SC(C)(C)[C@@H]2C(=O)O", "note": "[Meticillin, reference compound]", "values": [{"measurement": "Human cells % hemolysis at 500 μM", "setting": "human erythrocytes", "result": 0.12, "unit": "%"}, {"measurement": "Human cells H50", "setting": "human erythrocytes", "result": "nd (not detectable at the maximal concentration tested (500 μM))"}, {"measurement": "MIC", "setting": "[4]", "result": "> 500", "unit": "µM"}]}]}
